In patent US5986131A, “RXR selective ligands” (Hoffmann-La Roche Inc., priority 1997, dated 1999):
Entries after “also recorded” stand apart in the source; their conditions may differ. Where two headings read alike, the source gives them in different places.

Experiments:
RARα = biological target: T1, RARα (Homo sapiens, UniProt P10276); assay: RARα activation (transactivation); assay type: cell-based
T1 sequence (P10276 1-462): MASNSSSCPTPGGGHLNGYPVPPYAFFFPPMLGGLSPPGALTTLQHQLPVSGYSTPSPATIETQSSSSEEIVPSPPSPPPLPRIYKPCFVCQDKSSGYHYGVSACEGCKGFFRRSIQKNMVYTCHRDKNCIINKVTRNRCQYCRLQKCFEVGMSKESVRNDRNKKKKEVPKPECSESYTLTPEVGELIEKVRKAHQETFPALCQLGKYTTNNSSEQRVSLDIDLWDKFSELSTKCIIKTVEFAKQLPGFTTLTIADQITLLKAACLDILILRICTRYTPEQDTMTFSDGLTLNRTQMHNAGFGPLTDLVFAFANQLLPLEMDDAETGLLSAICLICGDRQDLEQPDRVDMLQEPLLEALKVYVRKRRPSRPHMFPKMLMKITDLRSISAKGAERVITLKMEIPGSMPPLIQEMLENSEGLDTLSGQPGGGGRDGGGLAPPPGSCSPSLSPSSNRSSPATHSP
From the text: (§1) Methods essentially as described in those publications were used to determine the binding and transactivation properties of retinoids reported in the Examples herein.

RXRα = biological target: T2, RXRα (Homo sapiens, UniProt P19793); assay: RXRα activation (transactivation); assay type: cell-based; conditions: Table 1; read-out: Activation ED50, RXRα
T2 sequence (P19793 1-462): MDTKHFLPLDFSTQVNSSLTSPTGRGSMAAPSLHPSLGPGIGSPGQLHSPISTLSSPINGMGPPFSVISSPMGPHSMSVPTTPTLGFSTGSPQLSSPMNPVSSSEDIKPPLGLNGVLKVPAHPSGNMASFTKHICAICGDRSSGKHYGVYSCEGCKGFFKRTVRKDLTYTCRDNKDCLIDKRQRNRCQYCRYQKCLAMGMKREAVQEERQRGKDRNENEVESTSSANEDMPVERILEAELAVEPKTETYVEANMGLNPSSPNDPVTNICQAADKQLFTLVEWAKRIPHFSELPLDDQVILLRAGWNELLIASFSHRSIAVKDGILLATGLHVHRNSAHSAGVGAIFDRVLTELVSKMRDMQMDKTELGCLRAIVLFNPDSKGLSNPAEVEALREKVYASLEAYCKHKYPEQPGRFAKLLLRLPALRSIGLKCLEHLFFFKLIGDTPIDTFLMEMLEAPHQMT
From the text: as §1

[1] = test system: Hamster Ear Sebaceous Gland; assay: Effect on size of sebaceous glands of Golden Syrian hamsters; assay type: in vivo; set-up: Sebaceous Gland Size: unit not given here; conditions: 4 weeks topical dosing
Procedure: Charles River Golden Syrian male hamsters were given the desired dose in acetone. The compounds were stored at 4° C. protected from light. Fresh solutions were made up weekly.
Hamsters were dosed daily for five days, rested for two days, and dosed again for five days until 20 doses were given. The volume of solution was 50 microliters per ear.
Hamsters were sacrificed by CO2 inhalation, and the ears removed for histological evaluation. One ear was removed and the ventral surface separated from the rest of the ear. A 2 mm punch was removed 5 mm from the tip of the ear and stained in 0.1 % Sudan Black B dissolved in 100% propylene glycol overnight. After destaining, the size of sebaceous glands was quantified with a Donsanto Image Analysis System.
Data are given as the average area of 80-120 sebaceous glands per dose, as percent of the control (solvent-treated) sections.

mouse B cell = assay: Inhibition of LPS-induced mouse B cell proliferation (3H-thymidine incorporation); assay type: cell-based
Procedure: Single cell suspensions of mouse spleen were set up in culture in flatbottomed 96 well Microtiter trays, 0.2 ml/well of a 2×10^5 /ml cell suspension in IMDM supplemented with 10% foetal calf serum, HEPES, antibiotics and 50 μM 2-mercaptoethanol. The specific B cell mitogen E. coli lipopolysaccharide (DIFCO) (LPS) was added at 50μg/ml. Cultures were incubated at 37° C. in a humidified atmosphere and 5% CO2.
The retinoids to be tested were first titrated in triplicate from 10 nM to 10 μM and left throughout the whole culture period. […] Cyclosporin A (Sandoz AG) was used as a reference compound (from 1 nM to 1 μM).
The cultures were then harvested on glass fiber filters and the radioactivity imcorporated into DNA measured in a β-liquid scintillation counter (Betaplate, Wallac Oy, Turku, Finland).
The results are expressed as % of the response of untreated cultures. […] Retinoids were added to the cultures at the beginning of the culture period.

HL-60 cells = assay: HL-60 differentiation (NBT reduction); assay type: cell-based, human
Procedure: Under the influence of retinoids, HL-60 cells (a human myeloid leukemia cell line) differentiate into granulocytes. This differentiation of HL-60 cells into granulocytes is mediated by RARα, and so provides the basis for the use of retinoids to treat leukemia.
Retinoid-induced differentiation of HL-60 cells was assayed by measuring their oxidative burst potential via the reduction of NBT (Nitroblueterstazolium) [Pick et al., J. Reticuloendothelial Soc., 30:581-593 (1981)].
HL-60 cells were maintained in RPMI 1640 medium supplemented with 10% FCS, 2mM L-glutamine, ImM sodium pyruvate, 1% non-essential amino acids, 50 U/ml penicillin and 50 μg/ml streptomycin (=RPMI/FCS).
30,000 cells/[…] of RPMI/FCS were seeded into flat-bottomed microtiter wells. 10 μl of retinoids diluted in complete medium were added at the same time to yield final concentrations betweeen 10^-11 and 10^-6 M (stock solutions of 10^-2 M in ethanol were kep at -20° C. and protected from light). After 3 days, the medium was removed with a multichannel pipette and replaced with 100 μl of NBT solution (1 mg/ml in PBS with 200 nM phorbol myristate acetate (PMA). Following an additional hour incubation at 37° C. the NBT solution was removed and 100 μl of 10% SDS in 0.01 N HCl was added. The amount of the reduced NBT was quantified photometrically at 540 nm using an automated plate reader. The mean of 3 wells was calculated. S.E.M. were between 5 and 10%.

CC1=C(/C=C/C2=C(/C=C/C(C)=C/C(=O)O)CCCC2)C(C)(C)CCC1 [Example 4, (2E,4E)-3-Methyl-5-(2-((E)-2(2,6,6-trimethyl-1-cyclohexen-1-yl)ethenyl)-1-cyclohexen-1-yl)-2,4-pentadienoic acid]
EC50 (RARα; Table 1, read-out: Activation ED50, RARα): > 10000 nM | EC50 (RARα; Table 2, read-out: RARα activation ED50): > 10000 nM | EC50 (RXRα): 1.7 nM | Sebaceous Gland Size ([1]; 1 μg/day): 13237 ± 1491 | Sebaceous gland size % Change from Control ([1]; 1 μg/day, ns = not statistically significant): -20% | Sebaceous Gland Size ([1]; 10 μg/day): 17046 ± 4667 | Sebaceous gland size % Change from Control ([1]; 10 μg/day, ns = not statistically significant): +3% | Sebaceous Gland Size ([1]; 100 μg/day): 13043 ± 1577 | Sebaceous gland size % Change from Control ([1]; 100 μg/day): -21% | potency relative to all-trans RA (mouse B cell; LPS induced mouse B cell proliferation): 1/100 | IC50 (mouse B cell; Mus musculus, B-cell, 72 h, alone, FIG. 4, day 3): 100 nM | effect on B cell response at low doses (mouse B cell; day 4, low doses (=IC50 at day 3)): slightly enhancing the response | potentiation of inhibitory activity of all-trans RA on mouse B cell proliferation (mouse B cell; in combination with all-trans RA): potentiated the inhibitory activity of all-trans RA; also recorded: potentiates the effect of all-trans RA | inhibition by combination with 1 nM RA (mouse B cell; with 1 nM RA, day 4, FIG. 6): inhibition on the order of that induced by 10 nM RA | potentiation of effect of 1 nM all-trans RA (mouse B cell; with 1 nM all-trans RA, day 3, FIG. 5): potentiation of the effect of 1 nM RA to the level observed with 10 nM RA | excess RXR ligand over all-trans RA for potentiation (mouse B cell; with all-trans RA): 10 to 30 fold | magnitude of the potentiation (mouse B cell; with all-trans RA): roughly tenfold | activity as inducer of HL-60 differentiation compared with all-trans retinoic acid (HL-60 cells; FIG. 1): clearly less active | HL-60 differentiation activity by itself at potentiating concentrations (HL-60 cells; FIGS. 2 and 3, alone): not active by itself | activity as inducer of HL-60 differentiation (HL-60 cells; ×10^-6 M, alone): virtually inactive
